Data: patent US12390472B2 (SUZHOU SINOVENT PHARMACEUTICALS CO., LTD., priority 2018, dated 2025)
pIC50: −log10 of the molar value.

Legend:
[1] = target: EZH2 enzyme complex (Homo sapiens (Human), UniProt Q15910); assay: Test on EZH2 inhibitory activity (TR-FRET); format: biochemical; settings: EZH2 enzyme complex 25 ng/uL, histone H3 peptide 4 uM, SAM 2 uM, 300 min; read-out: IC50 of EZH2 inhibition
[2] = tested on: WSU-DLCL2; assay: Methylated lysine of histone-H3 (H3K27Me3) detection by ELISA, WSU-DLCL2 cells; format: cell-based; settings: Homo sapiens, WSUDLCL2, 168 h; WSU-DLCL2, 7 days treatment, H3K27Me3 normalized to total histone-3; read-out: IC50 of cell methylation, WSU-DLCL2
Description: (§1) The operations for adherent cells and suspension cells cultured in 96-well plates were slightly different after they had been treated with compound (4-fold dilution 20 uM-0.009 nM, 3 duplicate wells) for 7 days, and the operations are summarized as follows: For adherent cells, after discarding the medium, 75 uL of 1-fold hypotonic lysis buffer (10 mM Tris-HCl, pH 7.5, containing halt protease inhibitor and PMSF with a final concentration of 1 mM) was added; the plate was frozen at −80° C. for at least 1 h or overnight; once the plate was taken away from the −80° C. environment, 120 uL (to a final volume of about 195 uL) of 1-fold hypotonic lysis buffer (containing protease inhibitor) was added, and the plate was thawed at room temperature and shaken for 2 min for mixing; and 8 uL (to a final volume of about 203 uL) of 2.5 M NaCl was added to each well to a final NaCl concentration of 100 mM and then the plate was shaken for an additional 2 min for mixing.
(§2) For suspension cells (final volume of medium was 100 uL/well), 25 uL of 5-fold hypotonic lysis buffer (50 mM Tris-HCl, pH 7.5, containing halt protease inhibitor and PMSF with a final concentration of 1 mM) was added, and the plate was frozen at −80° C. for at least 1 h or overnight. Once the plate was taken away from the −80° C. environment, 20 uL of 0.625 M NaCl was added to each well to a final NaCl concentration of about 100 mM, and the mixture was mixed well.
(§3) 75 uL or 100 uL of sample (with duplicate wells provided) was added to two 96-well ELISA plates (ThermoFisher Scientific; Immulon 4HBX 3885) and the plates were coated with total protein lysate and incubated overnight at 4° C. 50 uL of lysate was retained for protein quantitation if necessary. The sealing of the plates must be ensured. The plates were washed twice with 300 uL of 1×PBST (PBS containing 0.05% Tween 20) per well. Each well was blocked with 300 uL of dilution (PBS+2% BSA+0.05% Tween 20), incubated for 2 h at room temperature, and washed twice with 1×PBST. Primary antibodies were diluted with a dilution solution containing 1% BSA+0.05% Tween 20. 75-100 uL of anti-H3K27Me3 antibody (CST; 9733; 50% glycerol stock, 1:1,000) or anti-total histone-3 antibody (Abcam; ab1791; 50% glycerol stock, 1:10,000) was added to each well. The plates were incubated for 90 min at room temperature or incubated overnight at 4° C. The plates were washed three times with 1×PBST. 75-100 uL of anti-Rb-IgG-HRP secondary antibody (Cell Signaling Technology; 7074) was added per well, 1:2000 diluted secondary antibody for anti-H3K 27Me3 plate and 1:6000 diluted secondary antibody for anti-histone total histone-3 plate. The plates were incubated at room temperature for 90 min. The plate assayed with anti-histone-3 antibody was used to normalize the data for the corresponding plate assayed with anti-H3K 27me3. The plates must be washed at least three times with 1×PBST after primary or secondary antibody incubation. The plates were assayed by adding 75-100 uL of 3,3′,5,5′-tetramethylbenzidine substrate (CST or ThermoFisher Scientific; TMBS) per well and incubated away from light for 30 min at 37° C. The reaction was terminated by adding 100 uL of 0.5 M H2SO4 per well. The absorbance was read at 450 nm. Curve fitting was performed using Graph Pad program.

[3] = tested on: Pfeiffer; assay: Methylated lysine of histone-H3 (H3K27Me3) detection by ELISA, Pfeiffer cells; format: cell-based, human; settings: Homo sapiens, 168 h, 7 days treatment, H3K27Me3 normalized to total histone-3, read-out: IC50 of cell methylation, Pfeiffer
Description: as §1, §2, §3

EZH2 enzyme complex, sequence (Q15910 whole entry): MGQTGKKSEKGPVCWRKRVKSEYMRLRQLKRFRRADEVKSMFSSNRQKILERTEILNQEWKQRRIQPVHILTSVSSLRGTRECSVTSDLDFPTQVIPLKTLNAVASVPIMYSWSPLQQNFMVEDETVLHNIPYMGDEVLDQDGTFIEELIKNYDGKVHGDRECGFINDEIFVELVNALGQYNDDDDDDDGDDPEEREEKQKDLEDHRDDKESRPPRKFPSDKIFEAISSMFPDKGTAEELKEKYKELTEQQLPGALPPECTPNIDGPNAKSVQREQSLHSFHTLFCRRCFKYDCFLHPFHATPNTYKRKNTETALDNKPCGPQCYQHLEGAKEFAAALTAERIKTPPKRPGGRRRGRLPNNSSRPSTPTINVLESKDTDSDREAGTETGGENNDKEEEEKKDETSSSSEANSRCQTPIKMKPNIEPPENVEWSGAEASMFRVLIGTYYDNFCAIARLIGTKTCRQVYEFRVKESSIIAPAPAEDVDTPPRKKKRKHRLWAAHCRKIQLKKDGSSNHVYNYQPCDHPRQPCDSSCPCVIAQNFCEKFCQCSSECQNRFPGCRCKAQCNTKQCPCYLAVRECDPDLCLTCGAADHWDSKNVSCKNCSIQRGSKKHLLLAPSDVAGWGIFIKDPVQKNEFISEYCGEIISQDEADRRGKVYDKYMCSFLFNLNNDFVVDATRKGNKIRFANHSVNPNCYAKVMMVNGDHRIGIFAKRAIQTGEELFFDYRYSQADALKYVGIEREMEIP
EZH2 enzyme complex, sequence (O75530 whole entry partner): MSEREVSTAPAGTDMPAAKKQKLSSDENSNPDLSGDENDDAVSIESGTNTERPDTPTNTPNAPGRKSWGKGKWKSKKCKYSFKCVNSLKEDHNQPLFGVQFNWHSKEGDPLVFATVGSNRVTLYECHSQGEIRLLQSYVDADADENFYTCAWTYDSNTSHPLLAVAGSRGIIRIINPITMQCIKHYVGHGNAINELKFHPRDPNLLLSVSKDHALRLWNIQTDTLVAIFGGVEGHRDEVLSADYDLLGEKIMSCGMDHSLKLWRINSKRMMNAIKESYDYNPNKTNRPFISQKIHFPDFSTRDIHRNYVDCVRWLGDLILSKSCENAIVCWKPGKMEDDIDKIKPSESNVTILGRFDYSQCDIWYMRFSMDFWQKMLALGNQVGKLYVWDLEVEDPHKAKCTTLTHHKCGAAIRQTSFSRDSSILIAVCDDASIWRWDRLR
EZH2 enzyme complex, sequence (Q15022 whole entry partner): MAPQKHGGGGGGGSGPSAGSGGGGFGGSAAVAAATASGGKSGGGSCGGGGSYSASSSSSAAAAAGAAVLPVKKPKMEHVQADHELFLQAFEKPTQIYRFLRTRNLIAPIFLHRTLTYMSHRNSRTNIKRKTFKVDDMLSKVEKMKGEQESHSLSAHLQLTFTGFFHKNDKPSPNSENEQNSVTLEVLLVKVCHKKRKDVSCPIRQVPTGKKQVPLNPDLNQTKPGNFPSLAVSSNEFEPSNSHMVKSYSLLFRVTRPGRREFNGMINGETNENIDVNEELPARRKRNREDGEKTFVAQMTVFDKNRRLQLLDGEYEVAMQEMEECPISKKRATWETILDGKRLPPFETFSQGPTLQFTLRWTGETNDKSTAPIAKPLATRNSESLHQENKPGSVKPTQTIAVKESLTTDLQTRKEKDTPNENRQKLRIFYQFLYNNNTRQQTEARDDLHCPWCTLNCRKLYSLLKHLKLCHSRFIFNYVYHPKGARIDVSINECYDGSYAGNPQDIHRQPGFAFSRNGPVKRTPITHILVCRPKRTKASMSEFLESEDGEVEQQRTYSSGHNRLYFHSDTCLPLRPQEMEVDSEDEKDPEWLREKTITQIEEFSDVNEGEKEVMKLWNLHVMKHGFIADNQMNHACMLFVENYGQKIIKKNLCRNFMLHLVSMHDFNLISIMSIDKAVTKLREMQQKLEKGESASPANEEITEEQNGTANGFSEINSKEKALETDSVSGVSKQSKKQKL

Structure (SMILES)	pIC50 [1]	pIC50 [2]	pIC50 [3]
CCN(c1cc(O[C@H]2C[C@H](CN3C[C@@H](C)O[C@@H](C)C3)C2)cc(C(=O)NCc2c(C)cc(C)[nH]c2=O)c1C)C1CCOCC1 [Example 31, N-((4,6-dimethyl-2-oxo-1,2-dihydropyridin-3-yl)methyl)-5-(trans-3-((cis-2,6-dimethylmorpholinyl)methyl)cyclobutoxy)-3-(ethyl(tetrahydro-2H-pyran-4-yl)amino)-2-methylbenzamide]	7.00 to 8.00	> 7.30	> 7.30
CCN(c1cc(OC2CC(N3CCOCC3)C2)cc(C(=O)NCc2c(C)cc(C)[nH]c2=O)c1C)[C@H]1CC[C@H](N(C)CCOC)CC1 (stereo partly drawn) [Example 34, N-((4,6-dimethyl-2-oxo-1,2-dihydropyridin-3-yl)methyl)-3-(ethyl(trans-4-((2-methoxyethyl)(methyl)amino)cyclohexyl)amino)-2-methyl-5-(3-morpholinylcyclobutoxy)benzamide]	7.00 to 8.00	6.00 to 6.30	> 7.30
CCN(c1cc(O[C@H]2C[C@H](N3C[C@@H](C)O[C@@H](C)C3)C2)cc(C(=O)NCc2c(C)cc(C)[nH]c2=O)c1C)[C@H]1C[C@@H](C)O[C@@H](C)C1 [Example 35, N-((4,6-dimethyl-2-oxo-1,2-dihydropyridin-3-yl)methyl)-5-(trans-3-(cis-2,6-dimethylmorpholinyl)cyclobutoxy)-3-((cis-2,6-dimethyltetrahydro-2H-pyran-4-yl)(ethyl)amino)-2-methylbenzamide]	7.00 to 8.00	< 6.00	6.30 to 7.30
CCN(c1cc(O[C@H]2C[C@H](CN3CCCCC3)C2)cc(C(=O)NCc2c(C)cc(C)[nH]c2=O)c1C)C1CCOCC1 [Example 36, N-((4,6-dimethyl-2-oxo-1,2-dihydropyridin-3-yl)methyl)-3-(ethyl(tetrahydro-2H-pyran-4-yl)amino)-2-methyl-5-(trans-3-(piperidin-1-ylmethyl)cyclobutoxy)benzamide]	7.00 to 8.00	6.30 to 7.30	> 7.30
CCN(c1cc(O[C@H]2C[C@H](N3CCC(C)CC3)C2)cc(C(=O)NCc2c(C)cc(C)[nH]c2=O)c1C)C1CCOCC1 [Example 37, N-((4,6-dimethyl-2-oxo-1,2-dihydropyridin-3-yl)methyl)-3-(ethyl(tetrahydro-2H-pyran-4-yl)amino)-2-methyl-5-(trans-3-(4-methylpiperidin-1-yl)cyclobutoxy)benzamide]	> 8.00	6.30 to 7.30	> 7.30
CCN(c1cc(O[C@H]2C[C@@H](N3C[C@@H](C)O[C@@H](C)C3)C2)cc(C(=O)NCc2c(C)cc(C)[nH]c2=O)c1C)[C@@H]1C[C@@H](C)O[C@@H](C)C1 [Example 38, N-((4,6-dimethyl-2-oxo-1,2-dihydropyridin-3-yl)methyl)-5-((1S,3S)-3-((2S,6R)-2,6-dimethylmorpholinyl)cyclobutoxy)-3-(((2R,4s,6S)-2,6-dimethyltetrahydro-2H-pyran-4-yl)(ethyl)amino)-2-methylbenzamide]	6.00 to 7.00	< 6.00	6.00 to 6.30
CCN(c1cc(O[C@H]2C[C@H](N3C[C@@H](C)O[C@@H](C)C3)C2)cc(C(=O)NCc2c(C)cc(C)[nH]c2=O)c1C)[C@@H]1C[C@@H](C)O[C@@H](C)C1 [Example 39, N-((4,6-dimethyl-2-oxo-1,2-dihydropyridin-3-yl)methyl)-5-(trans-3-(cis-2,6-dimethylmorpholinyl)cyclobutoxy)-3-((trans-2,6-dimethyltetrahydro-2H-pyran-4-yl)(ethyl)amino)-2-methylbenzamide]	6.00 to 7.00	< 6.00	6.00 to 6.30
CCN(c1cc(O[C@H]2C[C@H](N3C[C@@H](C)O[C@@H](C)C3)C2)cc(C(=O)NCc2c(C)cc(C)[nH]c2=O)c1C)C1CCOC1 (stereo partly drawn) [Example 46, N-((4,6-dimethyl-2-oxo-1,2-dihydropyridin-3-yl)methyl)-5-(trans-3-(cis-2,6-dimethylmorpholinyl)cyclobutoxy)-3-(ethyl(tetrahydrofuran-3-yl)amino)-2-methylbenzamide]	> 8.00	6.30 to 7.30	6.00 to 6.30
